Measured values from patent US11326992B2 (priority 2016, dated 2022).

Columns and labels:
[1] = morphine value marked (base); cited from earlier work
[2] = Blood:Plasma binding ratio of guanfacine test sample; type: in vitro ADME; settings: whole blood sample; read-out: Blood:Plasma binding ratio (Ke/p)
Experimental: The multilayer device of the invention was tested using a known hypertension and ADHD drug, guanfacine, with its [^13C, ^15N3] internal standard, Guanfacine (C9H9Cl2N3O) has a monoisotopic mass of 245.0123 Da, while the internal standard [^13C, ^15N3]-guanfacine (^13CC8H9Cl2^15N3O) has a monoisotopic mass of 249.0067 Da. These compounds were tested using a whole blood sample with a Blood:Plasma binding ratio (Ke/p) of 1.5 and analyzed using LC-MS/MS bioanalysis following the protocol described here.

[3] = Short term on-card stability; settings: day 28, stored in the presence of air (RT+Air and −20° C.+Air)
[4] = High QC 900 ng/mL, ANOVA p<0.0001

Compound | pKa [1] | blood plasma ratio [2] | on-card stability [3, 4] | on-card stability ([3]; LLOQ 5 ng/mL, ANOVA)
CNC(C)Cc1ccccc1 (centres unmarked) [Methamphetamine] | 9.9 |  |  | 
N=C(N)NC(=O)Cc1c(Cl)cccc1Cl [guanfacine] |  | 1.5 |  | 
CNC(C)Cc1ccc2c(c1)OCO2 (centres unmarked) [MDMA, 3,4-methylenedioxymethamphetamine] | 9.9 |  |  | 
CC(C)(N)Cc1ccccc1 [Phentermine] | 10.1 |  |  | 
COc1ccc2c3c1O[C@H]1C(=O)CC[C@H]4[C@@H](C2)N(C)CC[C@]314 [Hydrocodone] |  |  | significant decompositions | significant decomposition
COc1ccc2c3c1O[C@H]1C(=O)CC[C@@]4(O)[C@@H](C2)N(C)CC[C@]314 [Oxycodone] |  |  | significant decompositions | significant decomposition
CNC(C)C(=O)c1ccc(C)cc1 (centres unmarked) [Mephedrone] | 9.0 |  | significant decompositions | significant decomposition
